The values below come from PubChem BioAssay (NCI).

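Method: 48-hour compound exposure of cells in 96-well plates, five concentrations, linear interpolation of endpoints. At the TGI there is no net growth.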 Some results are limits rather than exact numbers.

The first assay has as its system SNB-19 CNS. In words: DTP human tumour cell line panel, 48 h.
A word on the TGI: it is the concentration giving total growth inhibition. Consider `O=C1CC(c2ccc([N+](=O)[O-])cc2)C2(C(=O)NC(=S)NC2=O)C(c2ccc([N+](=O)[O-])cc2)C1` (stereo not given), for which the total growth inhibition concentration (TGI) is 43.5 µM.

Turning to `O=C1OC[C@@H]2Cc3c([nH]c4ccccc34)[C@@H](c3ccc(O)cc3)N12`, the TGI was over 100 µM.

Molecule `CC1=CC(=O)N(n2c(C)n[nH]c2=O)C1=O` showed a concentration for total growth inhibition (TGI) of over 100 µM.

`C(=Nc1ccc(-c2nc3ccccc3s2)cc1)c1ccco1`: the TGI was over 100 µM.

In the case of `Cc1cccc(N(CCC#N)S(=O)(=O)c2ccccc2)c1`, the TGI is over 100 µM.

`c1ccc2c(c1)CCCN1CCc3ccccc3C21` (stereo not given) gave a TGI of over 100 µM.

In turn, `CN1CN(c2ccccc2)C2(CCN(CCCC3(c4cccs4)OCCO3)CC2)C1=O` yielded a TGI of over 100 µM.

On to `CCOC(=O)c1c(SCCN2CCCC2)n(-c2ccccc2)c(=S)n(-c2ccccc2)c1=O`, for which the TGI was found to be 31.2 µM.

In turn, `O=c1c2cc(I)ccc2[nH]c(=S)n1Cc1ccccc1` displayed a concentration for total growth inhibition (TGI) of 98.9 µM. This TGI lies about 3.2-fold higher than the previous one.

Molecule `N#Cc1c(OCCF)c2ccccc2n2c1nc1ccccc12` came in with a TGI of over 100 µM.

In the case of `O=C1/C(=C/c2ccc([N+](=O)[O-])cc2)CNC/C1=C\c1ccc([N+](=O)[O-])cc1`, the TGI was determined as 10.6 µM.

In the case of `CC1CC(C#N)=C2NCCCCN2C1=O` (stereo not given), the total growth inhibition concentration (TGI) was over 100 µM.

`CCOc1ccc(N=C/C=C(\Cl)c2ccc3ccccc3c2)cc1` returned a TGI of 35.7 µM.

Molecule `Cc1ccc(C2=Nc3c(c(C)nn3-c3ccccc3)N=C(C(=O)O)C2)cc1` registered a TGI of over 10 µM.

`O=C1C(Br)=Cc2c(Cl)sc(Cl)c21`: the TGI worked out at 50.7 µM. In other words, the double-digit micromolar range.

As for `O=[N+]([O-])C(=C(Sc1ccccc1)Sc1ccccc1)C(Cl)=C(Cl)Cl`, the TGI was found to be 24.8 µM.

As for `CCOC(=O)C1C(=O)CC(O)(c2ccccc2)C(C(=O)OCC)C1c1ccc(OC)cc1` (stereo not given), the TGI was over 72.5 µM.

`COC(=O)CCCC(=O)C(=Nc1c(Cl)cccc1Cl)NNc1ccc(Cl)cc1` gave a TGI of over 100 µM.

`C=CC/C(C(=O)OC)=C(/C(=O)OC)N(CCC)CCC` came in with a concentration for total growth inhibition (TGI) of over 100 µM.

The test system of a further assay is LOX IMVI melanoma. Briefly: DTP human tumour cell line panel, 48 h.
On to `O=C1CC(c2ccc([N+](=O)[O-])cc2)C2(C(=O)NC(=S)NC2=O)C(c2ccc([N+](=O)[O-])cc2)C1` (stereo not given), for which the TGI is 39.4 µM. This lies in the double-digit micromolar range.

Molecule `O=C1OC[C@@H]2Cc3c([nH]c4ccccc34)[C@@H](c3ccc(O)cc3)N12` had a TGI of 46.3 µM.

In turn, `CC1=CC(=O)N(n2c(C)n[nH]c2=O)C1=O` had a TGI of over 100 µM.

Turning to `C(=Nc1ccc(-c2nc3ccccc3s2)cc1)c1ccco1`, the TGI is over 100 µM.

On to `Cc1cccc(N(CCC#N)S(=O)(=O)c2ccccc2)c1`, for which the TGI is over 100 µM.

Turning to `c1ccc2c(c1)CCCN1CCc3ccccc3C21` (stereo not given), the TGI is over 100 µM.

Consider `CN1CN(c2ccccc2)C2(CCN(CCCC3(c4cccs4)OCCO3)CC2)C1=O`, for which the TGI is over 100 µM.

Molecule `CCOC(=O)c1c(SCCN2CCCC2)n(-c2ccccc2)c(=S)n(-c2ccccc2)c1=O` came in with a TGI of 3.79 µM.

`O=c1c2cc(I)ccc2[nH]c(=S)n1Cc1ccccc1` showed a TGI of over 100 µM.

The molecule `N#Cc1c(OCCF)c2ccccc2n2c1nc1ccccc12` had a TGI of over 100 µM.

As for `O=C1/C(=C/c2ccc([N+](=O)[O-])cc2)CNC/C1=C\c1ccc([N+](=O)[O-])cc1`, the TGI was determined as 5.93 µM. That is a single-digit micromolar value.

Molecule `CC1CC(C#N)=C2NCCCCN2C1=O` (stereo not given) gave a total growth inhibition concentration (TGI) of over 100 µM.

For the molecule `CCOc1ccc(N=C/C=C(\Cl)c2ccc3ccccc3c2)cc1`, the TGI turned out to be 15.3 µM.

In the case of `Cc1ccc(C2=Nc3c(c(C)nn3-c3ccccc3)N=C(C(=O)O)C2)cc1`, the TGI was over 10 µM.

The molecule `O=C1C(Br)=Cc2c(Cl)sc(Cl)c21` displayed a total growth inhibition concentration (TGI) of 5.84 µM.

On to `O=[N+]([O-])C(=C(Sc1ccccc1)Sc1ccccc1)C(Cl)=C(Cl)Cl`, for which the TGI amounted to 1.09 µM. Against the preceding molecule, the TGI is about 5.4-fold lower.

On to `CCOC(=O)C1C(=O)CC(O)(c2ccccc2)C(C(=O)OCC)C1c1ccc(OC)cc1` (stereo not given), for which the TGI is over 64.7 µM.

Molecule `COC(=O)CCCC(=O)C(=Nc1c(Cl)cccc1Cl)NNc1ccc(Cl)cc1` displayed a TGI of over 100 µM.

With `C=CC/C(C(=O)OC)=C(/C(=O)OC)N(CCC)CCC`, the TGI was over 100 µM.

The subject of the next assay is MOLT-4 leukemia. In words: DTP human tumour cell line panel, 48 h.
`O=C1CC(c2ccc([N+](=O)[O-])cc2)C2(C(=O)NC(=S)NC2=O)C(c2ccc([N+](=O)[O-])cc2)C1` (stereo not given): the concentration for total growth inhibition (TGI) was over 100 µM.

On to `O=C1OC[C@@H]2Cc3c([nH]c4ccccc34)[C@@H](c3ccc(O)cc3)N12`, for which the total growth inhibition concentration (TGI) is over 75.3 µM.

Take `CC1=CC(=O)N(n2c(C)n[nH]c2=O)C1=O`: the TGI is over 100 µM.

Regarding `C(=Nc1ccc(-c2nc3ccccc3s2)cc1)c1ccco1`, the total growth inhibition concentration (TGI) is over 100 µM.

Turning to `Cc1cccc(N(CCC#N)S(=O)(=O)c2ccccc2)c1`, the TGI was over 100 µM.

For the molecule `c1ccc2c(c1)CCCN1CCc3ccccc3C21` (stereo not given), the TGI is over 100 µM.

Regarding `CN1CN(c2ccccc2)C2(CCN(CCCC3(c4cccs4)OCCO3)CC2)C1=O`, the total growth inhibition concentration (TGI) was over 100 µM.

Turning to `CCOC(=O)c1c(SCCN2CCCC2)n(-c2ccccc2)c(=S)n(-c2ccccc2)c1=O`, the TGI turned out to be 5.11 µM. That is a single-digit micromolar value.

With `O=c1c2cc(I)ccc2[nH]c(=S)n1Cc1ccccc1`, the TGI is over 100 µM.

On to `N#Cc1c(OCCF)c2ccccc2n2c1nc1ccccc12`, for which the TGI is over 100 µM.

`O=C1/C(=C/c2ccc([N+](=O)[O-])cc2)CNC/C1=C\c1ccc([N+](=O)[O-])cc1` yielded a concentration for total growth inhibition (TGI) of over 38 µM.

The molecule `CC1CC(C#N)=C2NCCCCN2C1=O` (stereo not given) showed a TGI of over 100 µM.

`CCOc1ccc(N=C/C=C(\Cl)c2ccc3ccccc3c2)cc1` showed a TGI of 6.16 µM.

For `Cc1ccc(C2=Nc3c(c(C)nn3-c3ccccc3)N=C(C(=O)O)C2)cc1`, the TGI was over 10 µM.

Molecule `O=C1C(Br)=Cc2c(Cl)sc(Cl)c21` yielded a TGI of 2.08 µM.

In turn, `O=[N+]([O-])C(=C(Sc1ccccc1)Sc1ccccc1)C(Cl)=C(Cl)Cl` came in with a TGI of 0.216 µM.

As for `CCOC(=O)C1C(=O)CC(O)(c2ccccc2)C(C(=O)OCC)C1c1ccc(OC)cc1` (stereo not given), the TGI is over 82 µM.

In turn, `COC(=O)CCCC(=O)C(=Nc1c(Cl)cccc1Cl)NNc1ccc(Cl)cc1` came in with a total growth inhibition concentration (TGI) of 76.6 µM.

In the case of `C=CC/C(C(=O)OC)=C(/C(=O)OC)N(CCC)CCC`, the TGI is over 100 µM.

A further assay relates to NCI-H226 lung. Briefly: DTP human tumour cell line panel, 48 h.
`O=C1CC(c2ccc([N+](=O)[O-])cc2)C2(C(=O)NC(=S)NC2=O)C(c2ccc([N+](=O)[O-])cc2)C1` (stereo not given) returned a TGI of 36.9 µM.

The molecule `O=C1OC[C@@H]2Cc3c([nH]c4ccccc34)[C@@H](c3ccc(O)cc3)N12` registered a TGI of 80.1 µM.

On to `CC1=CC(=O)N(n2c(C)n[nH]c2=O)C1=O`, for which the TGI is over 100 µM.

As for `C(=Nc1ccc(-c2nc3ccccc3s2)cc1)c1ccco1`, the TGI is over 100 µM.

Molecule `Cc1cccc(N(CCC#N)S(=O)(=O)c2ccccc2)c1` came in with a total growth inhibition concentration (TGI) of over 100 µM.

The molecule `c1ccc2c(c1)CCCN1CCc3ccccc3C21` (stereo not given) returned a TGI of over 100 µM.

In turn, `CN1CN(c2ccccc2)C2(CCN(CCCC3(c4cccs4)OCCO3)CC2)C1=O` returned a TGI of over 100 µM.

In turn, `CCOC(=O)c1c(SCCN2CCCC2)n(-c2ccccc2)c(=S)n(-c2ccccc2)c1=O` came in with a TGI of 33.9 µM.

Regarding `O=c1c2cc(I)ccc2[nH]c(=S)n1Cc1ccccc1`, the TGI is over 100 µM.

`N#Cc1c(OCCF)c2ccccc2n2c1nc1ccccc12` gave a TGI of over 100 µM.

On to `O=C1/C(=C/c2ccc([N+](=O)[O-])cc2)CNC/C1=C\c1ccc([N+](=O)[O-])cc1`, for which the total growth inhibition concentration (TGI) was over 57.5 µM.

In turn, `CC1CC(C#N)=C2NCCCCN2C1=O` (stereo not given) returned a TGI of over 100 µM.

`CCOc1ccc(N=C/C=C(\Cl)c2ccc3ccccc3c2)cc1` had a TGI of 53.7 µM.

`Cc1ccc(C2=Nc3c(c(C)nn3-c3ccccc3)N=C(C(=O)O)C2)cc1`: the TGI is over 10 µM.

`O=C1C(Br)=Cc2c(Cl)sc(Cl)c21` gave a total growth inhibition concentration (TGI) of over 100 µM.

The molecule `O=[N+]([O-])C(=C(Sc1ccccc1)Sc1ccccc1)C(Cl)=C(Cl)Cl` came in with a TGI of 1.31 µM.

Molecule `CCOC(=O)C1C(=O)CC(O)(c2ccccc2)C(C(=O)OCC)C1c1ccc(OC)cc1` (stereo not given) displayed a concentration for total growth inhibition (TGI) of over 100 µM.

The molecule `COC(=O)CCCC(=O)C(=Nc1c(Cl)cccc1Cl)NNc1ccc(Cl)cc1` displayed a TGI of over 100 µM.

The molecule `C=CC/C(C(=O)OC)=C(/C(=O)OC)N(CCC)CCC` yielded a TGI of over 100 µM.

The subject of a further assay is SF-268 CNS. In words: DTP human tumour cell line panel, 48 h.
In turn, `O=C1CC(c2ccc([N+](=O)[O-])cc2)C2(C(=O)NC(=S)NC2=O)C(c2ccc([N+](=O)[O-])cc2)C1` (stereo not given) yielded a TGI of 45.6 µM. That is a double-digit micromolar value.

Molecule `O=C1OC[C@@H]2Cc3c([nH]c4ccccc34)[C@@H](c3ccc(O)cc3)N12` registered a TGI of over 100 µM.

With `CC1=CC(=O)N(n2c(C)n[nH]c2=O)C1=O`, the total growth inhibition concentration (TGI) is over 100 µM.

As for `C(=Nc1ccc(-c2nc3ccccc3s2)cc1)c1ccco1`, the TGI is over 100 µM.

`Cc1cccc(N(CCC#N)S(=O)(=O)c2ccccc2)c1` returned a TGI of over 100 µM.

For `c1ccc2c(c1)CCCN1CCc3ccccc3C21` (stereo not given), the TGI is over 100 µM.

In turn, `CN1CN(c2ccccc2)C2(CCN(CCCC3(c4cccs4)OCCO3)CC2)C1=O` gave a TGI of over 100 µM.

Turning to `CCOC(=O)c1c(SCCN2CCCC2)n(-c2ccccc2)c(=S)n(-c2ccccc2)c1=O`, the TGI is 10.1 µM. This lies in the double-digit micromolar range.

Take `O=c1c2cc(I)ccc2[nH]c(=S)n1Cc1ccccc1`: the TGI amounted to 57.5 µM.

In turn, `N#Cc1c(OCCF)c2ccccc2n2c1nc1ccccc12` gave a concentration for total growth inhibition (TGI) of over 100 µM.

Molecule `O=C1/C(=C/c2ccc([N+](=O)[O-])cc2)CNC/C1=C\c1ccc([N+](=O)[O-])cc1` displayed a TGI of 4.47 µM.

Molecule `CC1CC(C#N)=C2NCCCCN2C1=O` (stereo not given) came in with a TGI of over 100 µM.

The molecule `CCOc1ccc(N=C/C=C(\Cl)c2ccc3ccccc3c2)cc1` gave a total growth inhibition concentration (TGI) of 37.4 µM.

`Cc1ccc(C2=Nc3c(c(C)nn3-c3ccccc3)N=C(C(=O)O)C2)cc1` displayed a TGI of over 10 µM.

Molecule `O=C1C(Br)=Cc2c(Cl)sc(Cl)c21` came in with a TGI of over 28 µM.

Turning to `O=[N+]([O-])C(=C(Sc1ccccc1)Sc1ccccc1)C(Cl)=C(Cl)Cl`, the TGI stood at 5.37 µM. That is a single-digit micromolar value.

On to `CCOC(=O)C1C(=O)CC(O)(c2ccccc2)C(C(=O)OCC)C1c1ccc(OC)cc1` (stereo not given), for which the TGI is over 100 µM.

As to `COC(=O)CCCC(=O)C(=Nc1c(Cl)cccc1Cl)NNc1ccc(Cl)cc1`, the TGI was over 100 µM.

`C=CC/C(C(=O)OC)=C(/C(=O)OC)N(CCC)CCC` returned a TGI of over 100 µM.
